Data published in patent US8093288B2, “Genipin derivatives and uses thereof” (Beth Israel Deaconess Medical Center, priority 2003, dated 2012).

Experiments:
[1] = system: kidney mitochondria of UCP2 knockout mice; test: Proton leak titration in isolated kidney mitochondria of UCP2 knockout mice with superoxide-generating system; assay type: biochemical; settings: 50 μM genipin with 50 mM xanthine and 0.2 mU/3.5 mL xanthine oxidase, FIG. 3
Method: FIG. 3 is a graph showing the effect of genipin on superoxide-activated, UCP2-dependent proton leak in isolated kidney mitochondria of UCP2 knockout mice. Proton leak titration was performed in the presence of a superoxide-generating system (xanthine plus xanthine oxidase) essentially as described (Echtay et al. 2002, Nature 415, 96-99). Graphs show the rate of proton leak as a function of its driving force, mitochondrial membrane potential. ♦, control; ▪, xanthine (50 mM) plus xanthine oxidase (0.2mU/3.5 ml). Δ, xanthine/xanthine oxidase plus 50 μM genipin. Mitochondria were incubated with genipin in the oxygen electrode for 5 minutes before xanthine oxidase was added (to initiate the generation of superoxide). Western-blot analysis confirmed that there was no UCP2 protein in mitochondria from UCP2 knockout mice. Data are means +/−S.E.M. of four independent experiments.
Wildtype and UCP2 knockout mice were used for isolation of kidney mitochondria. Fresh tissues were minced in ice-cold STE buffer (250 mM sucrose, 5 mM Tris, 2 mM EGTA, pH 7.4 at 4° C.), and disrupted in a Dounce homogenizer. Cell debris was removed by centrifugation of the homogenate at 500×g for 3 min. The supernatant was centrifuged at 10,000×g for 8 min., and the mitochondrial pellet was resuspended in ice-cold STE buffer. Mitochondria were subjected to another cycle of centrifugation at 750 and 10,000×g. […]

UCP2 KO islets = test: Glucose-stimulated insulin secretion in UCP2 KO islets after chronic hyperglycemia; assay type: cell-based, mice; settings: UCP2 KO islets after 72 hours at 25 mM glucose; 5 μM genipin; FIG. 12B
Method: Pancreatic islets were isolated from WT (FIG. 12A) or UCP2 KO mice (FIG. 12B) and subjected to chronic incubations at low (5.5 mM) and high glucose (25 mM). In a separate experiment, islets were isolated from ob/ob mice (FIG. 12C). Islets were incubated for a total of 72 hours and washed, and then insulin-secretion studies were performed using three different concentrations of glucose (5.5, 12.5, and 25 mM) with or without 5 μM genipin. Results are means±SEM of four independent experiments (FIGS. 12A and 12B) or eight to twenty repeats of one representative experiment (FIG. 12C). WT islets that were chronically incubated at low glucose released increasing amounts of insulin in response to increasing concentrations of glucose (FIG. 12A, left panel). Following chronic hyperglycemia, islets increased basal insulin release, but were completely unresponsive to glucose stimulation (FIG. 12A, middle panel). […] To assess the role of genipin in hyperglycemia-induced loss of glucose responsiveness, genipin was acutely added into islets during the insulin-release phase of the study. […] To see whether this effect of genipin is mediated by UCP2, islets were isolated from UCP2 KO mice and then incubated in chronic hyperglycemia. […]

UCP2 = biological target: T1, UCP2 (Mus musculus, UniProt P70406); test: Proton leak titration in isolated kidney mitochondria of wildtype mice with superoxide-generating system; assay type: biochemical; settings: 50 μM genipin with 50 mM xanthine and 0.2 mU/3.5 mL xanthine oxidase, FIG. 2
T1 construct: Wildtype and UCP2 knockout mice were used for isolation of kidney mitochondria; from tissue; host or cells: kidney mitochondria of wildtype mice
T1 sequence (P70406 1-309): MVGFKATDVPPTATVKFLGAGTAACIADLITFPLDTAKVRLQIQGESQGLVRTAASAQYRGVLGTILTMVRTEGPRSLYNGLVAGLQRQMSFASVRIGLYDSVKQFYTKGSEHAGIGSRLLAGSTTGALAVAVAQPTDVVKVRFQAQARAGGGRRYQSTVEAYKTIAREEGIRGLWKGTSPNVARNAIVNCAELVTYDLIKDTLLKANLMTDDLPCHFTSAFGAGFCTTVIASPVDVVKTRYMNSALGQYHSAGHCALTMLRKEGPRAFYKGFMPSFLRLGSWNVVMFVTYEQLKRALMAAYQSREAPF

[2] = system: high fat diet-fed wildtype mice; test: Blood glucose and insulin after genipin injection in high fat diet-fed wildtype mice; assay type: in vivo; settings: high fat diet 24 weeks, 20 hours fasting, 300 μg genipin injected, thirty minutes after injection
Method: Wildtype and UCP2 knockout mice were placed on a high fat diet obtained from Research Diets Inc., New Brunswick, N.J. (cat. no. D12331, HFD). The fat source was coconut oil and comprised 58% of the total calories. The mice remained on the high fat diet for 24 weeks. After the 24 weeks, both the wildtype and the UCP2 knockout mice were obese (about 50-60 g). After 20 hours of fasting, the blood glucose and insulin levels of the mice were measured, then the mice were injected with 300 μg of genipin. Thirty minutes after injection the blood glucose and insulin levels of the mice were measured again. Blood glucose levels were assessed using a glucometer (One touch, Lifescan, Milpitas, Calif.). Serum insulin concentrations were assessed using mouse insulin as a standard (Rat Insulin ELISA Kit. cat. #INSKR020 Crystal Chem. Inc., Chicago, Ill.). […] A comparison of the effect of genipin on the blood glucose levels and insulin levels in wildtype and UCP2 knockout mice can be seen in FIGS. 7 and 10, respectively.

With `COC(=O)C1=CO[C@@H](O)[C@@H]2C(CO)=CC[C@H]12` [genipin] the “rate of proton leak as a function of mitochondrial membrane potential” value [1] was “proton leak occurred at approximately the same membrane potential as that observed for kidney mitochondria from UCP2 knockout mice exposed to the superoxide-generating system alone”, the “glucose-stimulated insulin secretion (GSIS)” value (UCP2 KO islets) was “no additional beneficial effect on GSIS” and the “rate of proton leak as a function of mitochondrial membrane potential” value (UCP2) was “proton leak occurred at nearly the same mitochondria membrane potential as in the control”. For the same compound, the blood glucose levels ([2]; FIG. 5) was “significantly lowered blood glucose” and the blood insulin levels ([2]; FIG. 8) was “dramatically increase the blood insulin levels”.
